Laboratory results taken from patent US11465980B2, “6-membered aza-heterocyclic containing delta-opioid receptor modulating compounds, methods of using and making the same” (Trevena, Inc., priority 2015, dated 2022).

Experiments:
[1] = system: mouse; assay: Tactile allodynia produced by nitroglycerin (migraine model, mouse); format: in vivo; conditions: route sc, nitroglycerin 10 mg/kg ip, p < 0.05 vs vehicle
Protocol: Compounds were tested for efficacy in rodent models of nitroglycerine induced migraine. In this model both rats and mice can be induced to have a behavioral response consistent with the progression of a migraine attack by the intraperitoneal injection of nitroglycerin. In this test mice or rats (n=8/group) are given an intraperitoneal injection of nitroglycerin at 10 mg/kg. After 90 minutes the animals are subcutaneously dosed with test compound. A measurement of mechanical allodynia will be obtained using the up/down method with seven von Frey monofilaments. There is a specific series used for rat and mouse. Each monofilament is delivered to the hind paw for approximately 1-2 seconds. If there is a response, the next lower force will be delivered. This procedure will be performed until no response was made at the highest force or until four stimuli are administered following the initial response. The 50% paw withdrawal threshold for the hind paw will be calculated using the following formula: [Xth]log=[vFr]log+ky where [vFr] is the force of the last von Frey used, k is the average interval (in log units) between the von Frey monofilaments, and y is a value that depends upon the pattern of withdrawal responses. Testing for tactile sensitivity will be performed and a withdrawal value will be assigned as the tactile sensitivity (expressed in grams of force required to elicit a response) for the injected paw for each animal. Data is presented as the mean grams required to produce a hind paw withdrawal from the von Frey stimulus. […] Compounds found to be effective in this model of migraine at the doses indicated, although other doses may also be active. Other compounds described herein were not necessarily tested, but are expected to be able have some level of efficacy.

[2] = system: mouse; assay: Tactile allodynia produced by intraplantar Freund's Complete Adjuvant, von Frey (mouse); format: in vivo; conditions: route sc, p < 0.05 vs vehicle
Protocol: (§1) Animals were acclimated to the vivarium for at least 48 hr prior to behavioral testing. Inflammation was induced for both rodent species with the administration of an intraplantar (subcutaneous injection into the plantar surface of the hind paw, i.pl.) injection of 0.10 ml Freund's Complete Adjuvant (FCA).
For mouse studies, the experiments were conducted 48 hours after FCA administration. Tactile allodynia was measured using a series of von Frey monofilaments. These filaments are bendable, plastic and intended to poke, not penetrate, the skin. Animals were placed in a Plexiglas chamber (approximately 10 cm×20 cm×25 cm) and allowed to habituate for 5-10 minutes. The chamber was positioned on top of a mesh screen so that von Frey monofilaments can be presented to the plantar surface of the hind paw that is inflamed. The measurement of tactile sensitivity for the injected hind paw is obtained using the up/down method (LaBuda and Little, 2005, J Neurosci. Methods, 144, 175) with […]. Each trial will start with a von Frey force of 0.6 grams delivered to the hind paw for approximately 1-2 seconds. If there was no withdrawal response, the next higher force was be delivered. If there was a response, the next lower force was delivered. This procedure was performed until no response was made at the highest force (2 grams) or until four stimuli are administered following the initial response. The 50% paw withdrawal threshold for the hind paw was be calculated using the following formula: [Xth]log=[vFi]log+ky where [vFr] is the force of the last von Frey used, k is the average interval (in log units) between the von Frey monofilaments, and y is a value that depends upon the pattern of withdrawal responses (Dixon, Annual Review Pharmacol Toxicol, 1980, 20, 441).

[3] = system: rat; assay: Mechanical allodynia after Freund's Complete Adjuvant, Randall-Selitto (rat); format: in vivo; conditions: route sc, p < 0.05 vs vehicle
Protocol: as §1
For rat studies, the experiments were conducted 24 hours after CFA administration. Rats are tested for mechanical allodynia in a Randall-Selitto apparatus. The inflamed paw is put on a pedestal and a pointed force of increasing intensity (0 to 250 grams) is applied to the paw. When the animal struggles to withdraw from the force the test is stopped and the force to induce that struggle is recorded. Data may be presented as mean grams of force to withdrawal or a percentage of the maximum possible effect.

[4] = system: male c57bl6J mice; assay: Reversal of tactile allodynia produced by repeat dosing of sumatriptan (medication overuse headache); format: in vivo, mouse; conditions: 10 mg/kg s.c., 30 min prior to testing; sumatriptan 0.6 mg/kg i.p. daily for 11 days; FIG. 3
Protocol: Compounds were evaluated for their ability to treat Medication Overuse Headache (“MOH”). Assessment of reversal of tactile allodynia produced by repeat dosing of sumatriptan in mice: Mice (44 male c57bl6J mice, n=8-9/group) were habituated for 2 days on testing rack prior to injections. Mice were treated with vehicle (VEH-VEH (saline) VEH-B1049 (10% BCD-saline)) or sumatriptan (SUMA) (0.6 mg/kg, i.p.) daily for 11 days. Mechanical sensitivity was measured as the 50% withdrawal threshold to manual von Frey hair stimulation on day 12. Baseline measurement were taken 24 hours after final SUMA/VEH injection and 3 h later, post-drug measurements were taken after dosing with B1049 (10 mg/kg, s.c., 30 min prior to testing) or SNC80 (10 mg/kg, i.p., 45 min prior to testing). (***p<0.001 compared to post-drug SUMA-VEH). The results are illustrated in FIG. 3.

[5] = system: male c57bl6J mice; assay: Reversal of opioid-induced hyperalgesia (morphine); format: in vivo, mouse; conditions: 10 mg/kg s.c., 30 min prior to testing; morphine twice daily for 4 days; FIG. 4
Protocol: Next it was determined that B1049 could reverse opioid-induced hyperalgesia. Mice (44 male c57bl6J mice, n=8-9/group) were habituated for 2 days on testing rack prior to injections. Mice were treated with vehicle (VEH-VEH (saline), VEH-B1049 (10% BCD-saline)) or morphine (MORPH) (20 mg/kg, s.c. days 1-3, 40 mg/kg s.c. day 4) twice daily (9 a.m. and 5 p.m.) for 4 days. Mechanical sensitivity was measured as the 50% withdrawal threshold to manual von Frey hair stimulation on day 5. Baseline measurement were taken 16 hours after final MORPH/VEH injection and 3 h later, post-drug measurements were taken after dosing with B1049 (10 mg/kg, s.c., 30 min prior to testing) or SNC80 (10 mg/kg, i.p., 45 min prior to testing). (***p<0.001 compared to post-drug SUMA-VEH). The results are illustrated in FIG. 4.

[6] = system: male c57bl6J mice; assay: Tactile allodynia produced by repeat dosing of test drug (induction of medication overuse headache); format: in vivo, mouse; conditions: daily for 11 days; B1049 10 mg/kg s.c., sumatriptan 0.6 mg/kg i.p.; FIG. 5
Protocol: Mice (25 male c57bl6J mice, n=4-5/group) were habituated for 2 days on testing rack prior to injections. Mice were treated with vehicle (VEH-VEH (saline), VEH-B1049 (10% BCD-saline)), sumatriptan (SUMA) (0.6 mg/kg, i.p.), SNC80 (10 mg/kg, i.p.), or B1049 (10 mg/kg, s.c.) daily for 11 days. Mechanical sensitivity was measured as the 50% withdrawal threshold to manual von Frey hair stimulation on days 1 and 11. On these days, mice were habituated to the rack for 15-20 min, following which baseline mechanical thresholds were determined prior to administration of drug or control. On day 1 following assessment of baseline mechanical threshold, mice were weighed and injected with drug or control and returned to home cage. The results are illustrated in FIG. 5.

With `COCCOc1cccc([C@@H]2CCN(CCn3cccc3)[C@H](C)[C@H]2COc2ccc3c(c2)C(=O)NC3)c1` (relative stereo) [Compound B1049, (−)-6-{[(trans, trans)-4-[3-(2-methoxyethoxy)phenyl]-2-methyl-1-[2-(1H-pyrrol-1-yl)ethyl]piperidin-3-yl]methoxy}-2,3-dihydro-1H-isoindol-1-one] the “Active Migraine Doses” value [1] was no more than 10 mg/kg, the “Active CFA Dose” value [2] was no more than 10 mg/kg and the “Active CFA Dose” value [3] was no more than 10 mg/kg. For the same compound, the “reversal of tactile allodynia produced by repeat dosing of sumatriptan” value [4] was “able to reverse tactile allodynia produced by repeat dosing of sumatriptan”, the “reversal of opioid induced hyperalgesia” value [5] was “able to reverse opioid induced hyperalgesia” and the “induction of medication overuse headache (tactile allodynia after repeat dosing)” value [6] was “does not induce medication overuse headache”.
